According to ChEMBL document CHEMBL2413072, “Synthesis and in vitro anticancer studies of novel C-2 arylidene congeners of lantadenes” (2013):

Key:
Assay type in all cases: functional
[1] = tested on: SF-295; test: Growth inhibition of human SF295 cells assessed as cell growth at 10^-7 M by sulforhodamine B assay; settings: read-out: Activity
[2] = tested on: SK-MEL-5; test: Growth inhibition of human SK-MEL-5 cells assessed as cell growth at 10^-4 M by sulforhodamine B assay; settings: read-out: Activity
[3] = tested on: A549; test: Growth inhibition of human A549/ATCC cells assessed as cell growth at 10^-8 M by sulforhodamine B assay; settings: read-out: Activity
[4] = tested on: SW-620; test: Growth inhibition of human SW620 cells by sulforhodamine B assay
[5] = tested on: HOP-92; test: Growth inhibition of human HOP92 cells assessed as cell growth at 10^-7 M by sulforhodamine B assay; settings: read-out: Activity
[6] = tested on: K562; test: Growth inhibition of human K562 cells assessed as cell growth at 10^-6 M by sulforhodamine B assay; settings: read-out: Activity
[7] = tested on: HT-29; test: Growth inhibition of human HT-29 cells assessed as cell growth at 10^-7 M by sulforhodamine B assay; settings: read-out: Activity
[8] = tested on: CAKI-1; test: Growth inhibition of human CAKI-1 cells assessed as cell growth at 10^-7 M by sulforhodamine B assay; settings: read-out: Activity
[9] = tested on: MCF7; test: Growth inhibition of human MCF7 cells assessed as cell growth at 10^-7 M by sulforhodamine B assay; settings: read-out: Activity
[10] = tested on: MDA-MB-231; test: Growth inhibition of human MDA-MB-231 cells assessed as cell growth at 10^-8 M by sulforhodamine B assay; settings: read-out: Activity
[11] = tested on: SF-268; test: Growth inhibition of human SF268 cells assessed as cell growth at 10^-8 M by sulforhodamine B assay; settings: read-out: Activity
[12] = tested on: T47D; test: Growth inhibition of human T47D cells assessed as cell growth at 10^-7 M by sulforhodamine B assay; settings: read-out: Activity
[13] = tested on: RXF 393; test: Growth inhibition of human RXF393 cells assessed as cell growth at 10^-6 M by sulforhodamine B assay; settings: read-out: Activity
[14] = tested on: HOP-62; test: Growth inhibition of human HOP62 cells assessed as cell growth at 10^-8 M by sulforhodamine B assay; settings: read-out: Activity
[15] = Growth inhibition of human HCC2998 cells by sulforhodamine B assay
[16] = tested on: SR; test: Growth inhibition of human SR cells assessed as cell growth at 10^-8 M by sulforhodamine B assay; settings: read-out: Activity
[17] = tested on: HOP-62; test: Growth inhibition of human HOP62 cells assessed as cell growth at 10^-6 M by sulforhodamine B assay; settings: read-out: Activity
[18] = tested on: ACHN; test: Growth inhibition of human ACHN cells assessed as cell growth at 10^-8 M by sulforhodamine B assay; settings: read-out: Activity
[19] = tested on: NCI-H23; test: Growth inhibition of human NCI-H23 cells by sulforhodamine B assay
[20] = Growth inhibition of human HCC2998 cells assessed as cell growth at 10^-7 M by sulforhodamine B assay; settings: HCC 2998, read-out: Activity
[21] = tested on: SF-268; test: Growth inhibition of human SF268 cells assessed as cell growth at 10^-6 M by sulforhodamine B assay; settings: read-out: Activity
[22] = tested on: A549; test: Growth inhibition of human A549/ATCC cells assessed as cell growth at 10^-4 M by sulforhodamine B assay; settings: read-out: Activity
[23] = tested on: TK-10; test: Growth inhibition of human TK10 cells assessed as cell growth at 10^-7 M by sulforhodamine B assay; settings: read-out: Activity
[24] = tested on: HOP-92; test: Growth inhibition of human HOP92 cells assessed as cell growth at 10^-4 M by sulforhodamine B assay; settings: read-out: Activity
[25] = tested on: RPMI-8226; test: Growth inhibition of human RPMI8226 cells by sulforhodamine B assay
[26] = tested on: CAKI-1; test: Growth inhibition of human CAKI-1 cells assessed as cell growth at 10^-4 M by sulforhodamine B assay; settings: read-out: Activity
[27] = tested on: SNB-75; test: Growth inhibition of human SNB75 cells assessed as cell growth at 10^-8 M by sulforhodamine B assay; settings: read-out: Activity
[28] = tested on: MCF7; test: Growth inhibition of human MCF7 cells assessed as cell growth at 10^-4 M by sulforhodamine B assay; settings: read-out: Activity
[29] = tested on: K562; test: Growth inhibition of human K562 cells assessed as cell growth at 10^-4 M by sulforhodamine B assay; settings: read-out: Activity
[30] = tested on: T47D; test: Growth inhibition of human T47D cells assessed as cell growth at 10^-6 M by sulforhodamine B assay; settings: read-out: Activity
[31] = tested on: A549; test: Growth inhibition of human A549/ATCC cells by sulforhodamine B assay
[32] = tested on: MOLT-4; test: Growth inhibition of human MOLT4 cells assessed as cell growth at 10^-7 M by sulforhodamine B assay; settings: read-out: Activity
[33] = tested on: SK-MEL-2; test: Growth inhibition of human SK-MEL-2 cells assessed as cell growth at 10^-4 M by sulforhodamine B assay; settings: read-out: Activity
[34] = tested on: OVCAR-4; test: Growth inhibition of human OVCAR4 cells assessed as cell growth at 10^-7 M by sulforhodamine B assay; settings: read-out: Activity
[35] = tested on: SK-MEL-5; test: Growth inhibition of human SK-MEL-5 cells assessed as cell growth at 10^-7 M by sulforhodamine B assay; settings: read-out: Activity
[36] = tested on: NCI-H522; test: Growth inhibition of human NCI-H522 cells assessed as cell growth at 10^-4 M by sulforhodamine B assay; settings: read-out: Activity
[37] = tested on: T47D; test: Growth inhibition of human T47D cells by sulforhodamine B assay
[38] = tested on: U-251; test: Growth inhibition of human U251 cells assessed as cell growth at 10^-4 M by sulforhodamine B assay; settings: read-out: Activity
[39] = tested on: SW-620; test: Growth inhibition of human SW620 cells assessed as cell growth at 10^-8 M by sulforhodamine B assay; settings: read-out: Activity
[40] = tested on: A549; test: Growth inhibition of human A549/ATCC cells assessed as cell growth at 10^-6 M by sulforhodamine B assay; settings: read-out: Activity
[41] = tested on: HCT-116; test: Growth inhibition of human HCT116 cells assessed as cell growth at 10^-8 M by sulforhodamine B assay; settings: read-out: Activity
[42] = tested on: SF-268; test: Growth inhibition of human SF268 cells assessed as cell growth at 10^-4 M by sulforhodamine B assay; settings: read-out: Activity
[43] = tested on: SNB-19; test: Growth inhibition of human SNB19 cells assessed as cell growth at 10^-6 M by sulforhodamine B assay; settings: read-out: Activity
[44] = read-out: LC50 (the source's name)
[45] = read-out: pLC50 (the source's name) (converted)

Compound C/C=C(/C)C(=O)O[C@@H]1CC(C)(C)C[C@H]2C3=CC[C@@H]4[C@@]5(C)CCC(=O)C(C)(C)[C@@H]5CC[C@@]4(C)[C@]3(C)CC[C@@]12C(=O)O [LANTADENE A] has a growth at 0.1 µM [1] of 88%, a growth at 100 µM [2] of -46% and a growth at 0.01 µM [3] of 94%. It also gave a GI50 ([4]; read-out: GI50) of 4.48 µM, a CC50 [4, 44] greater than 100 µM and a TGI ([4]; read-out: TGI) greater than 100 µM. The GI50 ([4]; read-out: pGI50 (converted)) was 4.47 µM, the CC50 [4, 45] was greater than 100 µM and the TGI ([4]; read-out: pTGI (converted)) was greater than 100 µM. For the same compound, the growth at 0.1 µM [5] was 71%, the growth at 1 µM [6] was 87% and the growth at 0.1 µM [7] was 101%. It also gave a growth at 0.1 µM [8] of 94%, a growth at 0.1 µM [9] of 90% and a growth at 0.01 µM [10] of 99%. For the same compound, the growth at 0.01 µM [11] was 100%, the growth at 0.1 µM [12] was 99% and the growth at 1 µM [13] was 81%. For the same compound, the growth at 0.01 µM [14] was 92%, the GI50 ([15]; HCC 2998, read-out: GI50) was 3.33 µM and the CC50 ([15]; HCC 2998, read-out: LC50 (the source's name)) was greater than 100 µM. It also gave a TGI ([15]; HCC 2998, read-out: TGI) greater than 100 µM, a GI50 ([15]; HCC 2998, read-out: pGI50 (converted)) of 3.31 µM and a CC50 ([15]; HCC 2998, read-out: pLC50 (the source's name) (converted)) greater than 100 µM. It also gave a TGI ([15]; HCC 2998, read-out: pTGI (converted)) greater than 100 µM, a growth at 0.01 µM [16] of 84% and a growth at 1 µM [17] of 98%. For the same compound, the growth at 0.01 µM [18] was 110%, the GI50 ([19]; read-out: GI50) was 4.55 µM and the CC50 [19, 44] was greater than 100 µM. The TGI ([19]; read-out: TGI) was greater than 100 µM, the GI50 ([19]; read-out: pGI50 (converted)) was 4.57 µM and the CC50 [19, 45] was greater than 100 µM. It also gave a TGI ([19]; read-out: pTGI (converted)) greater than 100 µM, a growth at 0.1 µM [20] of 108% and a growth at 1 µM [21] of 98%. For the same compound, the growth at 100 µM [22] was 10%, the growth at 0.1 µM [23] was 102% and the growth at 100 µM [24] was -35%. The GI50 ([25]; read-out: GI50) was 2 µM, the CC50 [25, 44] was greater than 100 µM and the TGI ([25]; read-out: TGI) was greater than 100 µM. For the same compound, the GI50 ([25]; read-out: pGI50 (converted)) was 2 µM, the CC50 [25, 45] was greater than 100 µM and the TGI ([25]; read-out: pTGI (converted)) was greater than 100 µM. The growth at 100 µM [26] was 20%, the growth at 0.01 µM [27] was 86% and the growth at 100 µM [28] was 15%. The growth at 100 µM [29] was 28%, the growth at 1 µM [30] was 93% and the GI50 ([31]; read-out: GI50) was 2.84 µM. For the same compound, the CC50 [31, 44] was greater than 100 µM, the TGI ([31]; read-out: TGI) was greater than 100 µM and the GI50 ([31]; read-out: pGI50 (converted)) was 2.82 µM. It also gave a CC50 [31, 45] greater than 100 µM, a TGI ([31]; read-out: pTGI (converted)) greater than 100 µM and a growth at 0.1 µM [32] of 102%. For the same compound, the growth at 100 µM [33] was -35%, the growth at 0.1 µM [34] was 95% and the growth at 0.1 µM [35] was 83%. It also gave a growth at 100 µM [36] of -4%, a GI50 ([37]; read-out: GI50) of 6.15 µM and a CC50 [37, 44] greater than 100 µM. For the same compound, the TGI ([37]; read-out: TGI) was greater than 100 µM, the GI50 ([37]; read-out: pGI50 (converted)) was 6.17 µM and the CC50 [37, 45] was greater than 100 µM. For the same compound, the TGI ([37]; read-out: pTGI (converted)) was greater than 100 µM, the growth at 100 µM [38] was 6% and the growth at 0.01 µM [39] was 100%. It also gave a growth at 1 µM [40] of 80%, a growth at 0.01 µM [41] of 94% and a growth at 100 µM [42] of 34%. For the same compound, the growth at 1 µM [43] was 91%.
